The values below are quoted from earlier work in US20240065977A1, “MYDRIATIC AND ANTI-MUSCARINIC AGENT COMPOSITION FOR OPHTHALMIC USE” (SENTISS PHARMA PRIVATE LIMITED, priority 2020, published 2024).

In this series the test system is pupil.

SMILES strings stand for the structures. Like-named read-outs stand apart in the source and are kept apart here.

For the compound `CN1[C@@H]2CC[C@H]1C[C@@H](OC(=O)C(O)c1ccccc1)C2` (stereo partly drawn) [Homatropine], where the note is “Concentration 2%-5%”, the “Mydriasis Peak” value is 40 to 60 min and the “Mydriasis Recovery” value was 1 to 3 days.

Take `CN1[C@@H]2CC[C@H]1C[C@@H](OC(=O)C(CO)c1ccccc1)C2` (stereo partly drawn) [Atropine]: for the setting “Concentration 0.5%-3%”, the “Mydriasis Peak” value is 30 to 40 min and the “Mydriasis Recovery” value is 7 to 12 days. Besides, where the note is “pupillary dilatation”, the duration of action is recorded as at least 7 days and the onset of action is 40 min.
